Experimental findings from patent publication US10752587B2, “Homobispiperidinyl derivatives as liver X receptor beta agonists, compositions and their use” (Merck Sharp & Dohme Corp., priority 2015, dated 2020) are described below.

In assay [1] the target is T1, glutathione-S-transferase (GST) tagged LXRbeta LBD (ligand binding domain) (Homo sapiens, UniProt P55055).
T1 construct: purchased Invitrogen pv4658.pps
T1 sequence (P55055 222-460 limits assumed): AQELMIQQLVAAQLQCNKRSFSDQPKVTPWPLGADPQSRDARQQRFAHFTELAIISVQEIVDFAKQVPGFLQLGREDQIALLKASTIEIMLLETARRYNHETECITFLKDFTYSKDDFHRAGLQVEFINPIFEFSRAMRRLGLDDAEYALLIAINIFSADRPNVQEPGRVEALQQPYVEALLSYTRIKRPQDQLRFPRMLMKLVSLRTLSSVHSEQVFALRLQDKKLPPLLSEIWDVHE
The experiment in a line: LanthaScreen TR-FRET Liver X Receptor Coactivator Assay, co-activator recruitment to LXRbeta LBD. The assay is classed as biochemical. The note with it: for Emax: efficacy at max dose, in relation to reference dual agonist T0901317, read-out: LXR beta Activity @ max dose (%); for EC50: potency (Inflection Point, IP), co-activator recruitment to LXRbeta LBD, in relation to T0901317, read-out: LXR beta IP. The essentials:
(§1)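 GST-tagged LBD added to test compound, then fluorescein-labelled coactivator peptide plus terbium anti-GST antibody; incubated at room temperature, TR-FRET read. Potency given as inflection point and efficacy as Emax relative to reference dual agonist T0901317.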
Background: In TR-FRET formats the signal depends on donor and acceptor labels being close together.

Assay [2] concerns the target T2, glutathione-S-transferase (GST) tagged LXRalpha LBD (ligand binding domain) (Homo sapiens, UniProt Q13133).
T2 construct: purchased Invitrogen pv4655
T2 sequence (Q13133 209-447 limits assumed): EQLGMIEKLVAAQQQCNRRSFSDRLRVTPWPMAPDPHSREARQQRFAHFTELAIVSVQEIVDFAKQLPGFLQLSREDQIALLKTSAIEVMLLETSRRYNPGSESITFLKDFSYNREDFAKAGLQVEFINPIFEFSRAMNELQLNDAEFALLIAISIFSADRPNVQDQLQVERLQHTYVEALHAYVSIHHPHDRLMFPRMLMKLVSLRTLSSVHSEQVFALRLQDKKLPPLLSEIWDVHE
The experiment in a line: LanthaScreen TR-FRET Liver X Receptor Coactivator Assay, co-activator recruitment to LXRalpha LBD. The note with it: for Emax: efficacy at max dose, in relation to reference dual agonist T0901317, read-out: LXR alpha Activity @ max dose (%); for LXR alpha IP (nM) / EC50: potency (Inflection Point, IP), co-activator recruitment to LXRalpha LBD, in relation to T0901317; for EC50: read-out: LXR alpha IP. The assay is classed as biochemical. The essentials:
as §1

Regarding `CC(C)Oc1cccc([C@@](O)(C(=O)N2CC(CC3CCN(c4ccc(C(=O)N(C)C)c(Cl)n4)CC3)C2)C(F)(F)F)c1` [Example 7-42, 2-chloro-N,N-dimethyl-6-{4-[(1-{(2R)-3,3,3-trifluoro-2-hydroxy-2-[3-(1-methylethoxy)phenyl]propanoyl}azetidin-3-yl)methyl]piperidin-1-yl}pyridine-3-carboxamide], in assay [1], the Emax came to 83% and the EC50 was determined as 30 nM. Moreover, in assay [2], the Emax worked out at 9% and the “LXR alpha IP (nM)” value is given as “NO IP”.

`CCc1cccc([C@@](O)(C(=O)N2CC(CC3CCN(c4ccc(C(=O)N(C)C)c(Cl)n4)CC3)C2)C(F)(F)F)c1` [Example 7-43, 2-chloro-6-[4-({1-[(2R)-2-(3-ethylphenyl)-3,3,3-trifluoro-2-hydroxypropanoyl]azetidin-3-yl}methyl)piperidin-1-yl]-N,N-dimethylpyridine-3-carboxamide]: in assay [1], the Emax amounted to 80% and the EC50 was 33 nM. Besides, in assay [2], the Emax was 16% and the “LXR alpha IP (nM)” value is “NO IP”.

Regarding `CCOc1cccc([C@@](O)(C(=O)N2CC(CC3CCN(c4ccc(C(=O)N(C)C)c(Cl)n4)CC3)C2)C(F)(F)F)c1` [Example 7-44, 2-chloro-6-[4-({1-[(2R)-2-(3-ethoxyphenyl)-3,3,3-trifluoro-2-hydroxypropanoyl]azetidin-3-yl}methyl)piperidin-1-yl]-N,N-dimethylpyridine-3-carboxamide], in assay [1], the Emax was found to be 75% and the EC50 is 34 nM. Also, in assay [2], the Emax worked out at 8% and the “LXR alpha IP (nM)” value is “NO IP”.

As for `COc1cccc([C@@](O)(C(=O)N2CC(CC3CCN(c4ccc(C(=O)N(C)C)c(Cl)n4)CC3)C2)C(F)(F)F)c1` [Example 7-45, 2-chloro-N,N-dimethyl-6-[4-({1-[(2R)-3,3,3-trifluoro-2-hydroxy-2-(3-methoxyphenyl)propanoyl]azetidin-3-yl}methyl)piperidin-1-yl]pyridine-3-carboxamide], in assay [1], the Emax worked out at 92% and the EC50 came to 22 nM. Besides, in assay [2], the Emax was found to be 14% and the “LXR alpha IP (nM)” value is listed as “NO IP”.

`CN(C)C(=O)c1ccc(N2CCC(CC3(C)CCN(C(=O)[C@](O)(c4cc(F)cc(Cl)c4)C(F)(F)F)CC3)CC2)nc1Cl` [Example 7-46, 2-chloro-6-[4-({1-[(2R)-2-(3-chloro-5-fluorophenyl)-3,3,3-trifluoro-2-hydroxypropanoyl]-4-methylpiperidin-4-yl}methyl)piperidin-1-yl]-N,N-dimethylpyridine-3-carboxamide]: the values for the Emax in assay [1] and in assay [2] were 109% and 46%, respectively. The EC50 in assay [1] is 2 nM; in assay [2], 40 nM.

Turning to `CN(C)C(=O)c1ccc(N2CCC(CC3(C)CCN(C(=O)[C@](O)(c4cccc(Cl)c4)C(F)(F)F)CC3)CC2)nc1Cl` [Example 7-47, 2-chloro-6-[4-({1-[(2R)-2-(3-chlorophenyl)-3,3,3-trifluoro-2-hydroxypropanoyl]-4-methylpiperidin-4-yl}methyl)piperidin-1-yl]-N,N-dimethylpyridine-3-carboxamide], in assay [1], the Emax was 66% and the EC50 amounted to 3 nM. Further, in assay [2], the Emax amounted to 22% and the EC50 turned out to be 60 nM.

As to `CC(C)Oc1cccc([C@@](O)(C(=O)N2CCC(C)(CC3CCN(c4ccc(C(=O)N(C)C)c(Cl)n4)CC3)CC2)C(F)(F)F)c1` [Example 7-48, 2-chloro-N,N-dimethyl-6-{4-[(4-methyl-1-{(2R)-3,3,3-trifluoro-2-hydroxy-2-[3-(1-methylethoxy)phenyl]propanoyl}piperidin-4-yl)methyl]piperidin-1-yl}pyridine-3-carboxamide], in assay [1], the Emax turned out to be 64% and the EC50 came out at 10 nM. In assay [2], the Emax was found to be 16% and the “LXR alpha IP (nM)” value is recorded as “NO IP”.

As to `CCc1cccc([C@@](O)(C(=O)N2CCC(C)(CC3CCN(c4ccc(C(=O)N(C)C)c(Cl)n4)CC3)CC2)C(F)(F)F)c1` [Example 7-49, 2-chloro-6-[4-({1-[(2R)-2-(3-ethylphenyl)-3,3,3-trifluoro-2-hydroxypropanoyl]-4-methylpiperidin-4-yl}methyl)piperidin-1-yl]-N,N-dimethylpyridine-3-carboxamide], in assay [1], the Emax came out at 40% and the EC50 came out at 6 nM. Besides, in assay [2], the Emax was 8% and the “LXR alpha IP (nM)” value is given as “NO IP”.

For the compound `CCOc1cccc([C@@](O)(C(=O)N2CCC(C)(CC3CCN(c4ccc(C(=O)N(C)C)c(Cl)n4)CC3)CC2)C(F)(F)F)c1` [Example 7-50, 2-chloro-6-[4-({1-[(2R)-2-(3-ethoxyphenyl)-3,3,3-trifluoro-2-hydroxypropanoyl]-4-methylpiperidin-4-yl}methyl)piperidin-1-yl]-N,N-dimethylpyridine-3-carboxamide], in assay [1], the Emax came out at 47% and the EC50 was 10 nM. Further, in assay [2], the Emax came to 6% and the “LXR alpha IP (nM)” value is recorded as “NO IP”.

For `COc1cccc([C@@](O)(C(=O)N2CCC(C)(CC3CCN(c4ccc(C(=O)N(C)C)c(Cl)n4)CC3)CC2)C(F)(F)F)c1` [Example 7-51, 2-chloro-N,N-dimethyl-6-[4-({4-methyl-1[(2R)-3,3,3-trifluoro-2-hydroxy-2-(3-methoxyphenyl)propanoyl]piperidin-4-yl}methyl)piperidin-1-yl]pyridine-3-carboxamide], in assay [1], the Emax was 35% and the EC50 was found to be 5 nM. In assay [2], the Emax was determined as 4% and the “LXR alpha IP (nM)” value is “NO IP”.

With `COc1cccc([C@@](O)(C(=O)N2CCC(CC3CCN(c4ccc(C(=O)N(C)C)c(Cl)n4)CC3)CC2)C(F)(F)F)c1` [Example 7-52, 2-chloro-N,N-dimethyl-6-[4-({1-[(2R)-3,3,3-trifluoro-2-hydroxy-2-(3-methoxyphenyl)propanoyl]piperidin-4-yl}methyl)piperidin-1-yl]pyridine-3-carboxamide], in assay [1], the Emax was found to be 69% and the EC50 was 5 nM. Moreover, in assay [2], the Emax stood at 14% and the EC50 came out at 120 nM.

Consider `CN(C)C(=O)c1ccc(N2CCC(CC3CCN(C(=O)C4(c5ccccc5Cl)CC4)CC3)CC2)nc1Cl` [Example 7-53, 2-chloro-6-{4-[(1-{[1-(2-chlorophenyl)cyclopropyl]carbonyl}piperidin-4-yl)methyl]piperidin-1-yl}-N,N-dimethylpyridine-3-carboxamide], for which, in assay [1], the Emax was 118% and the EC50 is 31 nM. For the same compound, in assay [2], the Emax came to 45% and the EC50 is 571 nM.

As for `CN(C)C(=O)c1ccc(N2CCC(CC3CCN(C(=O)C(O)(c4cccc(C(F)(F)F)c4)C(F)(F)F)CC3)CC2)nc1Cl` (stereo not shown) [Example 7-54, 2-chloro-N,N-dimethyl-6-{4-[(1-{3,3,3-trifluoro-2-hydroxy-2-[3-(trifluoromethyl)phenyl]propanoyl}piperidin-4-yl)methyl]piperidin-1-yl}pyridine-3-carboxamide], the values for the Emax in assay [1] and in assay [2] were 77% and 21%, respectively. Besides, the EC50 in assay [1] turned out to be 10 nM; in assay [2] it was 356 nM.

On to `Cc1cccc(C(O)(C(=O)N2CCC(CC3CCN(c4ccc(C(=O)N(C)C)c(Cl)n4)CC3)CC2)C(F)(F)F)c1` (stereo not shown) [Example 7-55, 2-chloro-N,N-dimethyl-6-[4-({1-[3,3,3-trifluoro-2-hydroxy-2-(3-methylphenyl)propanoyl]piperidin-4-yl}methyl)piperidin-1-yl] pyridine-3-carboxamide], for which, in assay [1], the Emax came to 59% and the EC50 is 5 nM. Further, in assay [2], the Emax worked out at 9% and the EC50 amounted to 141 nM.

For the compound `Cc1ccccc1C1(C(=O)N2CCC(CC3CCN(c4ccc(C(=O)N(C)C)c(Cl)n4)CC3)CC2)CCC1` [Example 7-56, 2-chloro-N,N-dimethyl-6-{4-[(1-{[1-(2-methylphenyl)cyclobutyl]carbonyl}piperidin-4-yl)methyl]piperidin-1-yl}pyridine-3-carboxamide], in assay [1], the Emax came to 114% and the EC50 stood at 20 nM. For the same compound, in assay [2], the Emax was determined as 37% and the EC50 was 429 nM.

On to `COc1ccccc1C1(C(=O)N2CCC(CC3CCN(c4ccc(C(=O)N(C)C)c(Cl)n4)CC3)CC2)CCC1` [Example 7-57, 2-chloro-6-{4-[(1-{[1-(2-methoxyphenyl)cyclobutyl]carbonyl}piperidin-4-yl)methyl]piperidin-1-yl}-N,N-dimethylpyridine-3-carboxamide], for which the Emax in assay [1] is 123%; in assay [2] it was 39%. Moreover, the figures for the EC50 in assay [1] and in assay [2] were 16 nM and 438 nM, respectively.
